Structures can show the parent of a compound that is named as a salt. Where two headings read alike, the source gives them in different places.
Assays:
[1] = system: fibrin- and LPS-induced microglia activation; assay: cells; assay type: cell-based, rat
[2] = system: fibrin-induced microglia activation; assay: Image-based assay of fibrin-induced microglia activation (HTS and dose response); assay type: cell-based, rat; conditions: for inhibition at 10 µM: Rattus norvegicus, Microglia, read-out: Fibrin % inhibition
[3] = system: primary rat microglia;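 for Fibrin % cell toxicity: share of dead cells sized under 150 µm2 at 10 µM in fibrin-stimulated microglia HTS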
[4] = system: LPS-induced microglia activation; assay: Image-based assay of LPS-induced microglia activation (HTS and dose response); assay type: cell-based, rat; conditions: for inhibition at 10 µM: Rattus norvegicus, Microglia, read-out: LPS % inhibition
[5] = system: primary rat microglia; remark: listed apart in the source;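 for Fibrin % cell toxicity: share of dead cells sized under 150 µm2 at 10 µM in fibrin-stimulated microglia HTS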
[6] = quadrant by fibrin and LPS inhibition in HTS of 1907 compounds
[7] = primary microglia HTS, fibrin stimulation, compounds at 10 μM
[8] = primary microglia HTS, LPS stimulation, compounds at 10 μM
[9] = primary HTS, 10 μM, fibrin-stimulated primary microglia
[10] = primary HTS, 10 μM, LPS-stimulated primary microglia

Compound | LPS % cell toxicity ([3]; rat) | Fibrin % cell toxicity ([5]; rat) | Quadrant (FIG. 5b) [1] | inhibition at 10 µM [2] | further results
CC(C)(C)NC[C@H](O)c1ccc(O)c(CO)c1 [Levosalbutamol] | 0% | 0% |  |  | Quadrant (FIG. 5b) [1, 6]: Q4; inhibition at 10 µM ([2]; primary microglia HTS, fibrin stimulation, activation = cell size >800 μm2): -29%; inhibition at 10 µM ([4]; 48 h, primary microglia HTS, LPS stimulation, activation = cell size >800 μm2): 11%
CC(=O)[C@]1(O)Cc2c(O)c3c(c(O)c2[C@@H](O[C@H]2C[C@H](N)[C@H](O)[C@H](C)O2)C1)C(=O)c1ccccc1C3=O.Cl [Idarubicin, Idarubicin Hydrochloride] |  |  |  |  | Quadrant (FIG. 5b) [1, 6]: Q2; Fibrin % inhibition ([2]; primary microglia HTS, fibrin stimulation, increased cell size (>800 μm^2) as marker of activation): 106%; LPS % cell toxicity [3]: 40%; LPS % inhibition ([4]; primary microglia HTS, LPS stimulation, increased cell size (>800 μm^2) as marker of activation): 106%; Fibrin % cell toxicity [5]: 90%
CCc1cccc2c3c([nH]c12)C(CC)(CC(=O)O)OCC3 (stereo not drawn) [Etodolac] | 1% | 0% |  |  | Quadrant (FIG. 5b) ([1]; classification by fibrin and LPS inhibition, HTS at 10 μM): Q4; inhibition at 10 µM [2, 7]: -87%; inhibition at 10 µM [4, 8]: 14%
C[C@H](CCC(=O)O)[C@H]1CC[C@H]2[C@@H]3[C@H](O)C[C@@H]4C[C@H](O)CC[C@]4(C)[C@H]3C[C@H](O)[C@]12C [Cholic Acid] | 0% | 0% | Q4 | -31% | inhibition at 10 µM [4]: -5%
CN(C)CCC(c1ccc(Cl)cc1)c1ccccn1 (stereo not drawn) [Chlorphenamine] | 0% | 1% | Q4 |  | inhibition at 10 µM [2, 9]: 0%; inhibition at 10 µM [4, 10]: 13%
Cc1ccc(-c2cc(C(F)(F)F)nn2-c2ccc(S(N)(=O)=O)cc2)cc1 [Celecoxib] | 0% | 0% |  |  | Quadrant (FIG. 5b) ([1]; primary HTS, 10 μM): Q4; inhibition at 10 µM [2, 9]: -31%; inhibition at 10 µM [4, 10]: 21%
O=C(O)CCCc1ccc(N(CCCl)CCCl)cc1 [Chlorambucil] | 0% | 1% |  |  | Quadrant (FIG. 5b) ([1]; primary HTS, 10 μM): Q4; inhibition at 10 µM [2, 9]: 8%; inhibition at 10 µM [4, 10]: -7%
CNCC[C@H](Oc1cccc2ccccc12)c1cccs1 [Duloxetine] | 0% | 0% | Q4 | 22% | inhibition at 10 µM [4]: 24%
NCCc1ccc(O)c(O)c1 [Dopamine] | 0% | 1% | Q4 | -17% | inhibition at 10 µM [4]: 9%
NC(=O)c1cccnc1 [Nicotinamide] | 0% | 1% | Q4 | -8% | inhibition at 10 µM ([4]; 48 h): 16%
NCC(=O)CCC(=O)O [Aminolevulinic acid] | 0% | 1% |  |  | Quadrant (FIG. 5b) ([1]; quadrant by fibrin and LPS inhibition, HTS at 10 μM): Q4; inhibition at 10 µM [2, 7]: -4%; inhibition at 10 µM [4, 8]: 10%
[H]/N=C(/N)N[C@H]1[C@H](O)[C@@H](O)[C@H](O[C@@H]2O[C@@H](C)[C@](O)(C=O)[C@H]2O[C@@H]2O[C@@H](CO)[C@H](O)[C@@H](O)[C@@H]2NC)[C@@H](N/C(N)=N\[H])[C@@H]1O [Streptomycin Sulfate] | 0% | 0% |  |  | Quadrant (FIG. 5b) ([1]; HTS of 1907 compounds, quadrant by fibrin and LPS inhibition): Q4; inhibition at 10 µM ([2]; primary microglia HTS, 10 μM, fibrin-stimulated, cell size >800 μm^2 as marker of activation): -46%; inhibition at 10 µM ([4]; primary microglia HTS, 10 μM, LPS-stimulated, cell size >800 μm^2 as marker of activation): 13%
COc1ccc2cc3[n+](cc2c1OC)CCc1cc2c(cc1-3)OCO2 [Berberine] | 0% | 0% |  |  | Quadrant (FIG. 5b) ([1]; primary HTS, 10 μM): Q4; inhibition at 10 µM [2, 9]: -62%; inhibition at 10 µM [4, 10]: 4%
c1ccc(-c2ccc(C(c3ccccc3)n3ccnc3)cc2)cc1 (stereo not drawn) [Bifonazole] | 0% | 1% | Q4 | -3% | inhibition at 10 µM [4]: 14%
CC[C@]1(O)C[C@@H]2CN(CCc3c([nH]c4ccccc34)[C@@](C(=O)OC)(c3cc4c(cc3OC)N(C)[C@H]3[C@@](O)(C(N)=O)[C@H](O)[C@]5(CC)C=CCN6CC[C@]43[C@@H]65)C2)C1 [Vindesine, Vindesine Sulfate] |  |  | Q2 |  | Fibrin % inhibition ([2]; 10 µM): 106%; LPS % cell toxicity [3]: 9%; LPS % inhibition ([4]; 10 µM): 102%; Fibrin % cell toxicity [5]: 30%
